Experimental data as given in patent publication US11578087B2, “Oxaborole esters and uses thereof” (priority 2016, dated 2023).
pIC50: −log10 of the molar value.

Key:
[1] = test system: IL3000 T. congolense (drug sensitive) strain; experiment: In vitro Alamar Blue 72 h drug sensitivity assay for T. congolense; assay type: cell-based, Trypanosoma congolense; conditions: Trypanosoma congolense, 72 h, bloodstream form, 69 h + 3 h Resazurin, 34° C., read-out: IC50: I Org. Growth T. congolense 3 d
How it was run: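 IC50 values derive from 11-point curves averaged over at least three independent runs, with fluorescence read at 536 nm excitation and 588 nm emission. Resazurin was added for a final 3 h after 69 h compound exposure of bloodstream forms (HMI medium, 20% bovine serum, 34° C, 5% CO2).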

[2] = test system: T. cruzi amastigote (Td Tomato-modified) in Vero cells; experiment: In vitro IC50 measurement of T. cruzi amastigote killing using Td Tomato-modified T. cruzi; assay type: cell-based; conditions: Trypanosoma cruzi, 72 h, fluorescence, read-out: IC50: I Org. amastigote Growth T. cruzi 3 d
How it was run: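 IC50/IC90 came from nonlinear regression of Day 3 minus Day 0 fluorescence (544/612 nm), correcting for input parasites. Final compound concentrations spanned 5 nM–5 uM on Td Tomato T. cruzi-infected Vero cells, 72 h at 37 °C.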

SMILES | pIC50 [1] | pIC50 [2]
COC(=O)[C@@H](NC(=O)c1ccc2c(c1C)B(O)OC2)C(C)C [Example 6-069, Methyl (1-hydroxy-7-methyl-1,3-dihydrobenzo[c][1,2]oxaborole-6-carbonyl)-L-valinate] | 8.00 to 9.29 | 6.00 to 7.68
Cc1c(C(=O)N[C@H](C(=O)OCc2ccc(S(=O)(=O)N3CCN(C)CC3)cc2)C(C)C)ccc2c1B(O)OC2 [Example 6-085, 4-((4-Methylpiperazin-1-yl)sulfonyl)benzyl (1-hydroxy-7-methyl-1,3-dihydrobenzo[c][1,2]oxaborole-6-carbonyl)-L-valinate] | 8.00 to 9.29 | 6.00 to 7.68
Cc1c(C(=O)N[C@H](C(=O)OCc2ccc(NS(C)(=O)=O)cc2)C(C)C)ccc2c1B(O)OC2 [Example 6-075, 4-(Methylsulfonamido)benzyl (1-hydroxy-7-methyl-1,3-dihydrobenzo[c][1,2]oxaborole-6-carbonyl)-L-valinate] | 5.30 to 8.00 | ≤ 6.00
Cc1c(C(=O)N[C@H](C(=O)OCc2ccc(C(F)(F)F)cn2)C(C)C)ccc2c1B(O)OC2 [Example 6-171, (5-(trifluoromethyl)pyridin-2-yl)methyl (1-hydroxy-7-methyl-1,3-dihydrobenzo[c][1,2]oxaborole-6-carbonyl)-L-valinate] | > 9.30 | ≥ 7.70
Cc1c(C(=O)N[C@H](C(=O)OCCN2CCCC2=O)C(C)C)ccc2c1B(O)OC2 [Example 6-212, 2-(2-oxopyrrolidin-1-yl)ethyl (1-hydroxy-7-methyl-1,3-dihydrobenzo[c][1,2]oxaborole-6-carbonyl)-L-valinate] | 5.30 to 8.00 | 6.00 to 7.68
Cc1c(C(=O)N[C@H](C(=O)OCCc2ccccn2)C(C)C)ccc2c1B(O)OC2 [Example 6-173, 2-(Pyridin-2-yl)ethyl (1-hydroxy-7-methyl-1,3-dihydrobenzo[c][1,2]oxaborole-6-carbonyl)-L-valinate] | > 9.30 | ≥ 7.70
Cc1c(C(=O)N[C@H](C(=O)OCc2cccc(OC(F)(F)F)c2)C(C)C)ccc2c1B(O)OC2 [Example 6-055, 3-Trifluoromethoxybenzyl (1-hydroxy-7-methyl-1,3-dihydrobenzo[c][1,2]oxaborole-6-carbonyl)-L-valinate] | > 9.30 | ≥ 7.70
Cc1c(C(=O)N[C@H](C(=O)OC2CCC2)C(C)C)ccc2c1B(O)OC2 [Example 6-136, Cyclobutyl (1-hydroxy-7-methyl-1,3-dihydrobenzo[c][1,2]oxaborole-6-carbonyl)-L-valinate] | > 9.30 | ≥ 7.70
Cc1c(C(=O)N[C@H](C(=O)OCC(F)(F)F)C(C)C)ccc2c1B(O)OC2 [Example 6-151, 2,2,2-Trifluoroethyl (1-hydroxy-7-methyl-1,3-dihydrobenzo[c][1,2]oxaborole-6-carbonyl)-L-valinate] | > 9.30 | ≥ 7.70
CCc1c(C(=O)N[C@H](C(=O)OCc2ccc(S(C)(=O)=O)cc2)C(C)C)ccc2c1B(O)OC2 [Example 6-076, 4-(Methylsulfonyl)benzyl (7-ethyl-1-hydroxy-1,3-dihydrobenzo[c][1,2]oxaborole-6-carbonyl)-L-valinate] | 8.00 to 9.29 | 6.00 to 7.68
Cc1c(C(=O)N[C@H](C(=O)OCc2cncs2)C(C)C)ccc2c1B(O)OC2 [Example 6-120, Thiazol-5-ylmethyl (1-hydroxy-7-methyl-1,3-dihydrobenzo[c][1,2]oxaborole-6-carbonyl)-L-valinate] | 8.00 to 9.29 | 6.00 to 7.68
Cc1c(C(=O)N[C@H](C(=O)OCc2cnc(N)nc2)C(C)C)ccc2c1B(O)OC2 [Example 6-225, (2-aminopyrimidin-5-yl)methyl (1-hydroxy-7-methyl-1,3-dihydrobenzo[c][1,2]oxaborole-6-carbonyl)-L-valinate] | 5.30 to 8.00 | 6.00 to 7.68
Cc1c(C(=O)N[C@H](C(=O)OC(C)C)C(C)C)ccc2c1B(O)OC2 [Example 6-112, Isopropyl (1-hydroxy-7-methyl-1,3-dihydrobenzo[c][1,2]oxaborole-6-carbonyl)-L-valinate] | 8.00 to 9.29 | ≥ 7.70
Cc1c(C(=O)N[C@H](C(=O)OCc2ccc(F)cc2)[C@@H](C)OCc2ccccc2)ccc2c1B(O)OC2 [Example 6-077, 4-Fluorobenzyl O-benzyl-N-(1-hydroxy-7-methyl-1,3-dihydrobenzo[c][1,2]oxaborole-6-carbonyl)-L-threoninate] | 8.00 to 9.29 | ≥ 7.70
Cc1c(C(=O)N[C@H](C(=O)OC(C)(C)C)C(C)C)ccc2c1B(O)OC2 [Example 6-188, Tert-butyl (1-hydroxy-7-methyl-1,3-dihydrobenzo[c][1,2]oxaborole-6-carbonyl)-L-valinate] | 5.30 to 8.00 | ≤ 6.00
CC(C)[C@H](NC(=O)c1ccc2c(c1C(F)F)B(O)OC2)C(=O)OCc1ccc(F)cc1 [Example 6-073, 4-Fluorobenzyl (7-(difluoromethyl)-1-hydroxy-1,3-dihydrobenzo[c][1,2]oxaborole-6-carbonyl)-L-valinate] | 8.00 to 9.29 | ≥ 7.70
Cc1c(C(=O)N[C@H](C(=O)OCc2ccnc(C(F)(F)F)n2)C(C)C)ccc2c1B(O)OC2 [Example 6-160, (2-(Trifluoromethyl)pyrimidin-4-yl)methyl (1-hydroxy-7-methyl-1,3-dihydrobenzo[c][1,2]oxaborole-6-carbonyl)-L-valinate] | > 9.30 | 6.00 to 7.68
Cc1c(C(=O)N[C@H](C(=O)OCc2nccc(C(F)(F)F)n2)C(C)C)ccc2c1B(O)OC2 [Example 6-203, (4-(trifluoromethyl)pyrimidin-2-yl)methyl (1-hydroxy-7-methyl-1,3-dihydrobenzo[c][1,2]oxaborole-6-carbonyl)-L-valinate] | > 9.30 | ≥ 7.70
Cc1c(C(=O)N[C@H](C(=O)OCc2ccc(OC(F)(F)F)cc2)C(C)C)ccc2c1B(O)OC2 [Example 6-054, 4-Trifluoromethoxybenzyl (1-hydroxy-7-methyl-1,3-dihydrobenzo[c][1,2]oxaborole-6-carbonyl)-L-valinate] | > 9.30 | ≥ 7.70
O=C(N[C@@H](Cc1ccccc1)C(=O)OCc1ccccc1)c1ccc2c(c1)B(O)OC2 [Example 6-009, Benzyl (1-hydroxy-1,3-dihydrobenzo[c][1,2]oxaborole-6-carbonyl)-L-phenylalaninate] | 8.00 to 9.29 | ≤ 6.00
Cc1c(C(=O)N[C@H](C(=O)OCc2cc(F)c(F)c(F)c2)C(C)C)ccc2c1B(O)OC2 [Example 6-100, 3,4,5-Trifluorobenzyl (1-hydroxy-7-methyl-1,3-dihydrobenzo[c][1,2]oxaborole-6-carbonyl)-L-valinate] | > 9.30 | ≥ 7.70
Cc1c(C(=O)N[C@H](C(=O)OCc2ncc3ccccc3n2)C(C)C)ccc2c1B(O)OC2 [Example 6-137, Quinazolin-2-ylmethyl (1-hydroxy-7-methyl-1,3-dihydrobenzo[c][1,2]oxaborole-6-carbonyl)-L-valinate] | > 9.30 | ≥ 7.70
CCc1c(C(=O)N[C@H](C(=O)OCc2ccccc2)C(C)C)ccc2c1B(O)OC2 [Example 6-053, Benzyl (7-ethyl-1-hydroxy-1,3-dihydrobenzo[c][1,2]oxaborole-6-carbonyl)-L-valinate] | > 9.30 | 6.00 to 7.68
Cc1c(C(=O)N[C@H](C(=O)OCCCN2CCOCC2)C(C)C)ccc2c1B(O)OC2 [Example 6-208, 3-morpholinopropyl (1-hydroxy-7-methyl-1,3-dihydrobenzo[c][1,2]oxaborole-6-carbonyl)-L-valinate] | 8.00 to 9.29 | 6.00 to 7.68
Cc1c(C(=O)N[C@H](C(=O)OCC2CCC(F)(F)CC2)C(C)C)ccc2c1B(O)OC2 [Example 6-154, (4,4-Difluorocyclohexyl)methyl (1-hydroxy-7-methyl-1,3-dihydrobenzo[c][1,2]oxaborole-6-carbonyl)-L-valinate] | > 9.30 | ≥ 7.70
Cc1c(C(=O)N[C@@H](C(=O)OCc2ccc(F)cc2)C(C)C)ccc2c1B(O)OC2 [Example 6-087, 4-Fluorobenzyl (1-hydroxy-7-methyl-1,3-dihydrobenzo[c][1,2]oxaborole-6-carbonyl)-D-valinate] | 5.30 to 8.00 | ≤ 6.00
CC(C)[C@H](NC(=O)c1ccc2c(c1F)B(O)OC2)C(=O)OCc1ccc(F)cc1 [Example 6-036, 4-Fluorobenzyl (7-fluoro-1-hydroxy-1,3-dihydrobenzo[c][1,2]oxaborole-6-carbonyl)-L-valinate] | 5.30 to 8.00 | 6.00 to 7.68
Cc1c(C(=O)N[C@H](C(=O)OCC2(F)CCOCC2)C(C)C)ccc2c1B(O)OC2 [Example 6-226, (4-fluorotetrahydro-2H-pyran-4-yl)methyl (1-hydroxy-7-methyl-1,3-dihydrobenzo[c][1,2]oxaborole-6-carbonyl)-L-valinate] | > 9.30 | ≥ 7.70
Cc1c(C(=O)N[C@H](C(=O)OC2CCCCC2)C(C)C)ccc2c1B(O)OC2 [Example 6-133, Cyclohexyl (1-hydroxy-7-methyl-1,3-dihydrobenzo[c][1,2]oxaborole-6-carbonyl)-L-valinate] | > 9.30 | ≥ 7.70
Cc1c(C(=O)N[C@H](C(=O)OCc2ccc(F)cc2)C2CCC2)ccc2c1B(O)OC2 [Example 6-059, 4-Fluorobenzyl (S)-2-cyclobutyl-2-(1-hydroxy-7-methyl-1,3-dihydrobenzo[c][1,2]oxaborole-6-carboxamido)acetate] | 8.00 to 9.29 | 6.00 to 7.68
